For one experiment, the system named is strain PA01 ΔoprM. Nature of the experiment: Minimum inhibitory concentration (eTest strip) on knockout PA01 ΔoprM. The class given is cell-based. The note with it: Pseudomonas aeruginosa. As to the method: (§1) Bacterial strains were grown overnight at 37° C. as described above. A 200 μL sample of the culture was then spread onto an LB agar plate, and allowed to dry for 10 minutes, followed by application of an eTestStrip (BioMerieux) for a test antibiotic. […] Each strain was tested in triplicate for each antibiotic.
(§2) The effects of phage resistance on sensitivity to the four drugs was tested in replicated assays with PA01 and PA14, as well as with three environmental strains (PAN, 1607, 1845) and three clinical isolates (PAPS, PASk, PADFU). In these assays, the phage-OMKO1 resistant strain was either a knockout mutant (ΔoprM derived from PA01), or an independently derived spontaneous mutant of the associated parental strain.

In experiment [1] the test system is strain ΔmexR (derived from PA01). Nature of the experiment: Minimum inhibitory concentration (eTest strip) on control knockout ΔmexR. The class given is cell-based. The note with it: Pseudomonas aeruginosa, average ± SD, phage-sensitive, over-expresses Mex systems. As to the method: as §1
As a control for transposon insertion, strain ΔmexR, which was also derived from PA01, was examined. mexR, the repressor of MexAB-OprM and MexXY-OprM operons should not negatively alter phage sensitivity.

Experiment [2] concerns P. aeruginosa isolated from the patient, susceptible to phage OMKO1. Nature of the experiment: MIC by eTest strip, patient isolate before phage exposure. It is filed as cell-based, Pseudomonas aeruginosa. As for the experimental part: as §1
(§3) P. aeruginosa isolated from the patient was subjected to Deep Sequencing (Next Generation Sequencing) on the Illumina HiSeq 2000 platform to confirm species identity and presence of genes known to be associated with efflux-pump mechanisms for resistance to antibiotics. Furthermore, a trade-off between phage OMKO1 sensitivity and antibiotic susceptibility was confirmed as per methods disclosed elsewhere herein (FIG. 5). Phage OMKO1 was sequenced also on the HiSeq 2000 platform and found to be in the PhiKZ-like virus genus.

Experiment [3] has as its system P. aeruginosa isolated from the patient, resistant to phage OMKO1. Nature of the experiment: MIC by eTest strip, patient isolate after evolved resistance to phage OMKO1. It is filed as cell-based, Pseudomonas aeruginosa. As for the experimental part: (§4) Phage OMKO1 was amplified on P. aeruginosa in liquid culture in conditions identical to the Serial passage assays. Following 12 hours of amplification, 100 μl of culture was plated on LB agar and incubated for 12 hours. Individual colony-forming units (CFUs) were then collected, and verified to be phage resistant by classic ‘spot tests’ (i.e., 10^7 PFU of phage OMKO1 was pipetted onto a lawn of each bacterial isolate to test whether the phage was capable of visibly clearing the lawn [indicating bacterial sensitivity to phage] versus incapable of clearing the lawn [indicating bacterial resistance to phage]).
as §1, §3

For experiment [4], the system named is 72-hour-old P. aeruginosa biofilms. Nature of the experiment: Biofilm elimination assays on prosthetic materials. The note with it: single agent (antibiotics at 2×MIC).
In experiment [5] the test system is environmental and clinical P. aeruginosa strains. As to the kind of experiment: MIC trade-off assay, phage-resistant mutants of environmental and clinical strains. The class given is cell-based, Pseudomonas aeruginosa. Conditions: majority of outcomes showing statistical significance.
Experiment [6] has as its system environmental isolates (PAN, 1607, 1845). Nature of the experiment: MIC trade-off assay, phage-resistant mutants of environmental isolates. It is filed as cell-based, Pseudomonas aeruginosa. Conditions: phage-resistant mutant versus parental strain. As for the experimental part: as §4, §1, §2
The mark [7] stands for this setting: Pseudomonas aeruginosa, read-out: MIC.
The mark [8] stands for this setting: Dacron sections, 24 h treatment, regrowth OD600.

Values after ≈ are worked out from the molar mass of the structure shown. Like-named read-outs stand apart in the source and are kept apart here.

Consider `CN(C)[C@@H]1C(O)=C(C(N)=O)C(=O)[C@@]2(O)C(O)=C3C(=O)c4c(O)cccc4[C@@](C)(O)[C@H]3C[C@@H]12` [TET, Tetracycline], for which the results for the MIC (in the experiment with strain PA01 ΔoprM; in experiment [1]) were 2 µg/mL (≈ 4.5 µM) and 256 µg/mL (≈ 576 µM), respectively.

On to `O=C(O)c1cn(C2CC2)c2cc(N3CCNCC3)c(F)cc2c1=O` [CIP, Ciprofloxacin], for which the MIC against strain PA01 ΔoprM worked out at 0.016 µg/mL (≈ 0.0483 µM); in experiment [1], 32 µg/mL (≈ 96.6 µM); in experiment [2] (setting [7]), 1.17 µg/mL (≈ 3.54 µM); in experiment [3] (Pseudomonas aeruginosa) it was 0.014 µg/mL (≈ 0.0423 µM). Further, the “elimination of 72-hour biofilms” value in experiment [4] (setting [8]) is “Neither ciprofloxacin nor ceftazidime at 2×MIC was sufficient to eliminate 72 hour biofilms”; in experiment [4] (Gore-Tex sections) it was “unable to remove 72-hour biofilms”; in experiment [4] (felt pieces), “neither antibiotic alone significantly removed 72-hour biofilms”; in experiment [4] (polypropylene suture), “not by antibiotics at 2×MIC”.

Consider `CC(C)(O/N=C(\C(=O)N[C@@H]1C(=O)N2C(C(=O)[O-])=C(C[n+]3ccccc3)CS[C@H]12)c1csc(N)n1)C(=O)O` [CAZ, Ceftazidime], for which the MIC against strain PA01 ΔoprM is 0.21 ± 0.144 µg/mL (≈ 0.384 µM); in experiment [1] it was 1.33 ± 0.035 µg/mL (≈ 2.44 µM); in experiment [2] (setting [7]) it was 1.67 µg/mL (≈ 3.05 µM); in experiment [3] (Pseudomonas aeruginosa), 0.35 µg/mL (≈ 0.64 µM). Moreover, the “change in drug sensitivity on phage resistance” value in experiment [5] was “greater drug sensitivity”. Also, the “elimination of 72-hour biofilms” value in experiment [4] (setting [8]) is on record as “Neither ciprofloxacin nor ceftazidime at 2×MIC was sufficient to eliminate 72 hour biofilms”; in experiment [4] (Gore-Tex sections), “unable to remove 72-hour biofilms”; in experiment [4] (felt pieces), “neither antibiotic alone significantly removed 72-hour biofilms”; in experiment [4] (polypropylene suture), “not by antibiotics at 2×MIC”.

`CC[C@H]1OC(=O)[C@H](C)[C@@H](O[C@H]2C[C@@](C)(OC)[C@@H](O)[C@H](C)O2)[C@H](C)[C@@H](O[C@@H]2O[C@H](C)C[C@H](N(C)C)[C@H]2O)[C@](C)(O)C[C@@H](C)C(=O)[C@H](C)[C@@H](O)[C@]1(C)O` [EM, Erythromycin]: the results for the MIC (in the experiment with strain PA01 ΔoprM; in experiment [1]) were 4.67 µg/mL (≈ 6.36 µM) and 256 ± 0.577 µg/mL (≈ 349 µM), respectively. Further, the “change in antibiotic sensitivity on resistance to phage OMKO1” value in experiment [6] is “increased sensitivity”.

Consider `NC[C@H]1O[C@H](O[C@H]2[C@H](O)[C@@H](O[C@H]3O[C@H](CO)[C@@H](O)[C@H](N)[C@H]3O)[C@H](N)C[C@@H]2N)[C@H](N)C[C@@H]1O` [tobramycin], for which the values for the MIC in experiment [2] (setting [7]) and in experiment [3] (Pseudomonas aeruginosa) were 11.3 µg/mL (≈ 24.2 µM) and 3.67 µg/mL (≈ 7.84 µM), respectively.

For gentamicin, the MIC in experiment [2] came to 3.7 µg/mL; in experiment [3] (eTest strip, after evolved resistance to phage OMKO1) it was 0.833 µg/mL.

The values above are taken from patent US20190142881A1, “BACTERIOPHAGE COMPOSITIONS AND USES THEREOF” (priority 2016, published 2019).
